Source: patent US8598225B2, “Use of L-butylphthalide in the manufacture of medicaments for treatment of cerebral infarct” (CSPC Zhongqi Pharmaceutical Technology (Shijiazhuang) Co., …, priority 2003, dated 2013)
“Also recorded” adds a separate entry of the source.

Key:
micro-circulation = settings: previous studies; cited from earlier work
[1] = system: transient focal cerebral ischemic model (tMCAO); assay: Neurological behavioral evaluation of tMCAO rats (score 0-4); settings: for mean neurological score: 15 min after ischemia, scored at 24 h, vehicle 2.6±0.3; for improvement of neurological symptoms (in words): oral, d-NBP 20 and 40 mg/kg, dl-NBP 40 and 80 mg/kg, vs. vehicle
Procedure: Male Wistar rats weighed 280-320 g were used, with each 5 rats kept in one cage. Animals were allowed free access to food and water at room temperature controlled at 23° C. The rats were anesthetized with 40 mg/kg of sodium pentobarbital. Under the surgical microscope, a midline neck skin incision was make to expose the right common cartotid artery, and the internal carotid artery (ICA) and external carotid artery (ECA) were then separated free from surrounding nerves and fascia, and the anastomotic branch was ligated. The ECA were ligated and cut, pulled to be straight and in line with ICA. A nylon suture with rounded tip and the diameter of 0.28 mm (coated with poly-L-lysine) was introduced from ECA into the lumen of the ICA for about 20 mm, advancing endocranially to the starting point of middle cerebral artery.
After 2 h of ischemia, the nylon suture was carefully withdrawn, and the ECA was ligated at the site of opening. The rats were then sutured and placed back into the cage, and allowed to reperfuse for 24 h. Room temperature throughout the operation was kept at 24-25° C. The rats were placed on the heating plate of 37° C. to maintain the body temperature throughout the operation. The administration was performed 15 minutes after ischemia.
Rats were divided into eight groups with 10 rats in each group. Group 1 was vehicle control with 1 ml/kg of vegetable oil; groups 2) and 3) were 40 and 80 mg/kg of dl-NBP; groups 4) and 5) were 20 and 40 mg/kg of d-NBP; groups 6) and 7) were 20 and 40 mg/kg of l-NBP; and group 8 was 0.1 mg/kg of MK801. Animals in groups 1-7 were orally administered, and animals in group 8 were intraperitoneally administered.
Neurological behavioral observation was conducted after 24 h of ischemia. Rats were lifted up by tail 1 inch away from the ground, and the conditions of both forelimbs were observed; both shoulders were pushed to observe if there was any difference between the resistances by both sides; the rats were placed down to the ground and their walking conditions were observed. Scores were given in accordance with the following criteria. • 0: strong forelimbs, symmetrically stretching towards the ground; identical resistance of both shoulders, and normal walk. • 1: contralateral shoulder flexion, forelimb flexion; identical resistance of both shoulders, and normal walk. • 2: contralateral shoulder flexion, forelimb flexion; decreased resistance of contralateral shoulder to push; and normal walk. • 3: contralateral shoulder flexion, forelimb flexion; decreased resistance of contralateral shoulder to push; and circling when walking • 4: contralateral shoulder flexion, forelimb flexion; and unable to autonomously move. The higher the score is, the more severe the behavioral disorder of the animal is.
The results were expressed as mean±standard error. Neurological behavioral score and cerebral infarct volume were statistically analyzed using one-way ANOVA and the difference between groups using posthoc LSD test. Result was considered to show a significant difference when p<0.05.

[2] = system: transient focal cerebral ischemic model (tMCAO); assay: Cerebral infarct volume of tMCAO rats (2 h middle cerebral artery occlusion, 24 h reperfusion, TTC staining); type: in vivo, rat; settings: 15 min after ischemia; for reduction of infarct volume vs. vehicle group: tMCAO rats, p<0.001; for effect on infarct volume (in words): oral, l-NBP and d-NBP 20 and 40 mg/kg, dl-NBP 40 and 80 mg/kg, vs. vehicle
[3] = system: acute ischemic cerebral stroke; settings: administration group; 192 cases multi centered, random, double blinded, placebo control (placebo 41.0%); cited from earlier work

| Compound | cerebral protective and micro-circulation improving effect (in words) (micro-circulation) | mean neurological score ([1]; 20 mg/kg oral, p<0.01) | mean neurological score ([1]; 40 mg/kg oral, p<0.001) | reduction of infarct volume vs. vehicle group ([2]; 40 mg/kg oral, 24 h reperfusion) | effect on infarct volume (in words) [2] | mean neurological score ([1]; 0.1 mg/kg intraperitoneal, p<0.001) | adverse behavioral signs in treated animals ([1]; 0.1 mg/kg intraperitoneal, tMCAO rats) | reduction of infarct volume vs. vehicle group ([2]; 0.1 mg/kg intraperitoneal) | improvement of neurological symptoms (in words) [1] | total effective rate [3] |
| --- | --- | --- | --- | --- | --- | --- | --- | --- | --- | --- |
| CCCC[C@@H]1OC(=O)c2ccccc21 [l-NBP, L-n-butylphthalide] | also has cerebral protective effect and micro-circulation improving effect | 1.4 | 1.1 | 80.4% | significantly reduced dose-dependently; also recorded: very significantly and dose dependently reduced | – | – | – | – | – |
| C[C@]12N[C@H](Cc3ccccc31)c1ccccc12 [MK801] | – | – | – | – | – | 0.8 | the limbs were weak, and staggered when sprawling, ataxia occurred, and unilaterally circled | 81.8% | – | – |
| CCCC[C@H]1OC(=O)c2ccccc21 [d-NBP, dextro-butylphthalide] | no such effect | – | – | – | no significant effect | – | – | – | no significant improvement | – |
| CCCCC1OC(=O)c2ccccc21 (racemic) [dl-NBP, racemic butylphthalide] | – | – | – | – | no significant effect; also recorded: no reduction effect | – | – | – | no significant improvement | 70.7% |
